We go through 5 molecules from patent US9797883B2, “Re-trafficking of herg reverses long QT syndrome 2 phenotype in human iPS-derived cardiomyocytes” (Singapore Health Services Pte Ltd, priority 2013, dated 2017).

Entries after “also recorded” stand apart in the source; their conditions may differ.

One data set concerns LQTS2-EBs. Description: Microelectrode array (MEA) extracellular field potential recordings, LQTS2. In kind it is cell-based, human. As to conditions: for cFPD (repolarization duration): human LQTS2 CMs. An excerpt: (§1) To characterize the electrophysiological properties of the hiPS-CMs, a microelectrode array (MEA) recording system (Multichannel Systems, Reutlingen, Germany) was used as described previously. Briefly, contracting areas were micro-dissected and plated on MEA plates, allowed to adjust for 72 hrs before recording. All clusters were monitored for their beating abilities (beats/min) under the microscope during the 72 hr period. Clusters that maintained relatively uniform beating rates were then subjected to drugs. The MEA system allows simultaneous recordings from 60 titanium nitride-coated gold electrodes (30 μm) at high spatial (200 μm) and temporal (15 kHz) resolutions. All stock drugs were diluted in medium (2 mL) to assess the effects on the electrophysiological properties. […]. MEA clip along with the beating clusters was maintained on 37° C. throughout the duration of experiments. Care was also taken that all buffers including the medium utilized during all experimentation were pre-warmed to 37° C. All tested drugs were procured from Sigma-Aldrich, MO, USA. All extracellular recordings were performed for 180 seconds at baseline and at 5 minutes after drug application at 37° C. Data were recorded using MC Rack software (Multichannel System) and the recordings were used to determine the local field potential duration (FPD). FPD measurements were normalized (corrected FPD [cFPD]) to the beating rate of the contracting areas with the Bazzet correction formula: cFPD=FPD/√(RR interval).

Another data set has as its system control-EBs. Nature of the data set: Microelectrode array (MEA) extracellular field potential recordings, control. The class given is cell-based, human. As to conditions: 100 nM E-4031, control contracting EBs.
Text: as §1, with “FPD measurements were normalized (corrected FPD [cFPD]) to the beating rate of the contracting areas with the Bazzet correction formula: cFPD=FPD/√(RR interval).” left out

The mark [1] stands for this setting: atenolol 10 μM after isoproterenol, LQTS2-EBs.

Turning to `Cc1ccc(NC(=O)C2(c3ccc4c(c3)OC(F)(F)O4)CC2)nc1-c1cccc(C(=O)O)c1` [VX-809, 3-[6-[[1-(2,2-difluoro-1,3-benzodioxol-5-yl)cyclopropanecarbonyl]amino]-3-methylpyridin-2-yl]benzoic acid], the “cFPD (repolarization duration)” value with LQTS2-EBs (VX-809 10 μM) is reported as “shortening the cFPD; also recorded: shortening of repolarization duration”.
As for `O=C([O-])CCCc1ccccc1.[Na+]` [4PBA, sodium 4-phenylbutyrate], the “cFPD (repolarization duration)” value in the data set on LQTS2-EBs (sodium 4-phenylbutyrate 400 μM) is “shortening the cFPD”; in the data set on LQTS2-EBs (sodium 4-phenylbutyrate 400 μM, listed as 4BPA), “shortening of repolarization duration”.
`CC(C)NCC(O)c1ccc(O)c(O)c1` (stereo not shown) [isoproterenol]: in the data set with LQTS2-EBs (isoproterenol 1 uM, LQTS2-EBs), the arrhythmogenic episodes entry is reported as “aggravating arrhythmogenic episodes” and the beating frequencies result is “increased beating frequencies”. Moreover, the cFPD with LQTS2-EBs (isoproterenol 1 uM, LQTS2-EBs, n=15, LQTS2-baseline 0.657±0.07 s) turned out to be 0.212 ± 0.02 s.
As to `CC(C)NCC(O)COc1ccc(CC(N)=O)cc1` (stereo not shown) [atenolol], in the data set on LQTS2-EBs (setting [1]), the beating frequencies entry was “reduced the beating frequencies” and the cFPD entry is reported as “restored cFPDs”.
With `Cc1cccc(CCN2CCC(C(=O)c3ccc(NS(C)(=O)=O)cc3)CC2)n1` [E-4031], the “beating rate-corrected field potential duration (cFPD)” value with LQTS2-EBs (100 nM E-4031, LQTS2 contracting EBs) is on record as “increased cFPDs significantly”; in the data set on control-EBs, “increased cFPDs significantly”.
